What was measured:
mouse primary neurons = assay: Neuroprotection in primary cultures exposed to LPS + IFN-γ; type: cell-based
Method: To unequivocally confirm that the observed neuroprotective effect was indeed mediated by CB2R activation, an additional experiment was conducted (Figure C).
To prepare primary neurons, brains from fetuses of pregnant CD1 mice were removed (gestational age: 19 days). Neurons were isolated as described in Hradsky et al. Briefly, after removal of the meninges, samples were dissected and digested with 0.25% trypsin (20 min at 37 °C). The effect of trypsin was stopped by adding an equal volume of culture medium (supplemented DMEM). A single-cell suspension was obtained by repeated pipetting followed by passage through a 100 μm-pore mesh. Pelleted (7 min, 200g) cells were resuspended in 2 mL of supplemented DMEM and seeded at a density of 3.5 × 10^5 cells/mL in 6-well plates. […]
Primary cultures of striatal neurons were treated for 24 h with selected SCRAs (100 nM). […] After ∼3 min of incubation at room temperature, 10 μL of the mixture were sampled in a Neubauer chamber and counted with a Countess II FL (Life Technologies, California, CA, USA). The unstained (viable) and stained (nonviable) cells were counted separately, and the percentage of viability was calculated as total number of viable cells/total number of cells × 100.

SH-SY5Y cells = assay: Neurite length in differentiated SH-SY5Y cells transfected with MAPT P301L + APP V717I; type: cell-based, human; settings: for neuroprotective effect in presence of CB2R antagonist SR144528: 100 and 10 nM, SR144528 1 μM
Text: Finally, to further validate these effects, a neuron-like in vitro model using differentiated SH-SY5Y cells was employed (Figure ). […] To simulate neurodegenerative conditions, cells were transiently transfected with expression plasmids encoding the MAPT P301L and APP V717I mutations. The MAPT P301L mutation promotes pathological tau hyperphosphorylation and aggregation, leading to microtubule destabilization, impaired axonal transport, and neurite retraction. , Meanwhile, the APP V717I mutation increases the production of long, aggregation-prone amyloidogenic peptides, disrupting cellular homeostasis through oxidative stress and cytoskeletal disorganization. ,
SH-SY5Y human neuroblastoma-derived cells (ECACC, 94030304) were cultured and differentiated in black 384-well plates (Revvity, 6057300). Plates were treated with laminin (1:500 dilution in PBS; Merck, L2020) by adding 25 μL per well and incubated for 2 h at room temperature. Subsequently, plates were washed three times with PBS. Cells were seeded at a density of 6.6 × 10^3 cells per well (in 50 μL) in culture medium. The base culture medium consisted of RPMI-1640 (Gibco, 61870) supplemented with 2% (v/v) fetal bovine serum (FBS; Merck, F7524), 1% (v/v) penicillin-streptomycin (P/S; Merck, P0781), and 0.1% (v/v) gentamicin (Merck, G1397).
Differentiation was initiated 24 h after plating. The culture medium was replaced with a differentiation medium composed of RPMI-1640 supplemented with 2% (v/v) FBS, 1% (v/v) P/S, 0.1% (v/v) gentamicin, and 10 μM all-trans retinoic acid (RA; Merck, R2625). Medium changes were performed every 3 days, and the plates were kept covered with aluminum foil to protect retinoic acid from light exposure. Six days later, cells were transfected with expression plasmids encoding MAPT P301L and APP V717I mutations employing Lipofectamine LTX (Thermo Fisher, 15338100) at a 1:2 proportion in Opti-MEM (Gibco, 11058-021) following the instructions of the manufacturer. After 6 h, the transfection medium was replaced with a differentiation medium composed of RPMI-1640, B27 supplement (1:50; Gibco, 17504), 1% (v/v) P/S, 0.1% (v/v) gentamicin, and 100 nM GLP-1 (Merck, G9416). 24 h later, test compounds were added using an Echo 650T acoustic dispenser (Labcyte) from a 10 mM stock solution in DMSO (Merck, D8418).
48 h after compound dispensation, cells were fixed with 4% paraformaldehyde (50 μL per well, Santa Cruz BT, sc-281692) for 20 min at 4 °C. Wells were then washed twice with HBSS (50 μL per wash, Merck, H8264) and incubated with 50 μL of blocking buffer for 30 min at room temperature. The blocking buffer consisted of HBSS supplemented with 5% BSA (w/v) (Merck, 10775835001) and 0.1% (v/v) Triton X-100 (Merck, T8787). After blocking, cells were incubated with an antibeta-tubulin antibody conjugated to Alexa Fluor 488 (1:500; BD Biosciences, 558605) and Draq5 nuclear stain (2.5 μM; Abcam, ab108410) diluted in blocking buffer. After incubation in the dark at room temperature, wells were washed once with 50 μL of HBSS and subsequently filled with 50 μL of blocking buffer prior to imaging.Images were acquired using an Operetta CLS High Content Screening System (Revvity) equipped with a 20× water-immersion objective. Fluorescent signals were detected using specific excitation/emission filter settings for each fluorophore: Alexa Fluor 488 (λex = 460–490 nm; λem = 500–550 nm) and Draq5 (λex = 615–645 nm; λem = 655–760 nm). For each well, nine nonoverlapping fields were captured under identical acquisition settings. Neurite length and complexity were quantified using Harmony software (version 4.9.2137.273; Revvity), applying a predefined analysis algorithm optimized for β-tubulin immunostaining. For each experiment, data were normalized to the average neurite length measured in the double-transfected condition (MAPT P301L + APP V717I) treated with vehicle, which was assigned a reference value of 100%. […]

Row | Structure (SMILES) | cell viability after LPS + IFN-γ with CB2R antagonist SR144528 (mouse primary neurons; compound alongside SR144528) [%] | cell viability after LPS + IFN-γ (mouse primary neurons; primary cultures exposed to LPS + IFN-γ) [%] | protective effect against neurite shortening (SH-SY5Y cells; 1 nM) | protective effect against neurite shortening (SH-SY5Y cells; 10 nM to 1 μM) | neuroprotective effect in presence of CB2R antagonist SR144528 (SH-SY5Y cells)
1 | NC(=O)[C@@H]1CCCCN1C(=O)c1nn(Cc2ccc(F)cc2)c2ccccc12 [18o] | ~60 | ~100 | neither compound produced a statistically significant effect | significant concentration-dependent protective effect | reversed
2 | NC(=O)[C@@H]1CCCCN1C(=O)c1cn(CC2CCCCC2)c2ccccc12 [18e] |  |  | neither compound produced a statistically significant effect | significant concentration-dependent protective effect | reversed
